Measured values from US5602167A, “4-arylcyclohepta[c] pyrrole analgesics” (Ortho Pharmaceutical Corporation, priority 1995, dated 1997).

Experiment: Mouse Acetylcholine Bromide-Induced Abdominal Constriction Assay
Assay type: in vivo
Settings: % analgesia
[1] = 30 mg/kg sc, 5.5 mg/kg i.p. acetylcholine bromide
[2] = 30 mg/kg po, 30 min before 5.5 mg/kg i.p. acetylcholine bromide

SMILES	% Inhibition at 30 mg/kg (route) [1]	% Inhibition at 30 mg/kg (route) [2]
COc1cccc([C@@H]2CCCC[C@@H]3CN(C)C[C@@H]32)c1 (relative stereo) [Cp-9]	90%	–
CN1C[C@H]2CCCC[C@@H](c3ccc(F)cc3)[C@H]2C1 (relative stereo) [Cp-7]	–	100%
CN1C[C@H]2CCCC[C@H](c3ccc(F)cc3)[C@H]2C1 (relative stereo) [Cp-6]	–	93%
CN1C[C@H]2CCCC[C@](O)(c3ccc(F)cc3)[C@H]2C1 (relative stereo) [Cp-3]	–	100%
COc1cccc([C@@]2(O)CCCC[C@@H]3CN(C)C[C@@H]32)c1 (relative stereo) [Cp-2]	–	80%
CN1C[C@H]2CCCC[C@](O)(c3ccccc3)[C@H]2C1 (relative stereo) [Cp-1]	–	93%
CN1C[C@H]2CCCC[C@@H](c3ccccc3)[C@H]2C1 (relative stereo) [Cp-5]	–	100%
CN1C[C@H]2CCCC[C@H](c3ccccc3)[C@H]2C1 (relative stereo) [Cp-4]	–	80%
COc1cccc([C@H]2CCCC[C@@H]3CN(C)C[C@@H]32)c1 (relative stereo) [Cp-8]	100%	–
